The record followed here is patent publication US20080226565A1, “Anticariogenic Proteins & Peptides & Saccharides” (priority 2004, published 2008).

In series [1] the test system is aerobes isolated from the oral cavity. The experiment in a line: Susceptibility (MIC), agar dilution, aerobes from the oral cavity. As to conditions: explored range 0.2 to 3.5 mg/ml. It is filed as cell-based, aerobic bacteria. The protocol: (§1) The investigations included more than hundred strains isolated from the oral cavity: : anaerobes, microaerophilic bacteria, aerobes, Streptococcus spp. and yeast like fungi. The microorganisms were isolated from saliva, mucosal membrane, gingival pockets and caries decay. The susceptibility (MIC) of bacteria and yeastlike fungi were determined by means of plate dilution technique in agar.
(§2) The investigated samples were dissolved in sterile distilled water (immediately before the experiment) to obtain the following concentrations: 3.5, 1.7, 0.8, 0.4 and 0.2 mg/ml and were added into appropriate agar. The plates were inoculated using a Steers multipoint inoculator. Inoculum contained 10^6 CFU/spot. In each experimental series, the growth of strains on the culture medium without the compounds investigated was checked. The concentration at which no macroscopic growth of the microbes was observed on the medium was regarded as the lowest concentration, inhibiting the growth of microbes (MIC). The examinations of the susceptibility of microbes to the peptides were carried out twice.
Anaerobes. The susceptibility of bacteria was determined by means of the agar dilution methods with Brucella agar supplemented with 5% defibrinated sheep's blood, menadione and hemin. Sample solutions with concentrations from of 3.5-0.2 mg/ml were added into agar. The agar plate without investigated samples was included as a bacterial growth control. The inoculum of 10^6 CFU/ml was applied to the agar plates with Steers replicator. Incubation was performed for 48 hrs at 37° C. (310° K) in anaerobic jars containing a mixture of 10% CO2, 10% H2 and 80% N2, in the presence of palladium catalyst and indicator of anaerobiosis. Microaerophilic bacteria. The susceptibility of bacteria was determined by means of the agar dilution methods with Brucella agar supplemented with 5% sheep's blood. Samples solutions with concentrations from of 3.5- 0.2 mg/ml were added into agar. The agar plate without investigated samples was included as a bacterial growth control. The inoculum of 10^6 CFU/ml was applied to the agar plates with Steers replicator. The incubation was performed at 37° C. in anaerobic jars with Campy Pak (bio Merieux) for 48 hours. Streptococcus spp. The susceptibility of bacteria was determined by means of the agar dilution methods with Mueller-Hinton agar supplemented with 5% sheep's blood. Samples solutions with concentrations from of 3.5- 0.2 mg/ml were added into agar. The agar plate without investigated samples was included as a bacterial growth control. […] The susceptibility to investigated samples was determined by means of the plate dilution technique in Mueller-Hinton agar. […] The susceptibility of fungi to investigated samples was determined by means of the plate dilution technique in Sabouraud's agar. […]
(In general: In agar dilution the substance is mixed into plates at graded concentrations.)

A short description of series [2]: Solubility in water. In kind it is physicochemical.
The subject of series [3] is anaerobes isolated from the oral cavity. As to the kind of experiment: Susceptibility (MIC), agar dilution, anaerobes from the oral cavity. It is filed as cell-based, anaerobic bacteria. Conditions: explored range 0.2 to 3.5 mg/ml. How it is done: as §1, §2
Anaerobes. The susceptibility of bacteria was determined by means of the agar dilution methods with Brucella agar supplemented with 5% defibrinated sheep's blood, menadione and hemin. Sample solutions with concentrations from of 3.5-0.2 mg/ml were added into agar. The agar plate without investigated samples was included as a bacterial growth control. The inoculum of 10^6 CFU/ml was applied to the agar plates with Steers replicator. Incubation was performed for 48 hrs at 37° C. (310° K) in anaerobic jars containing a mixture of 10% CO2, 10% H2 and 80% N2, in the presence of palladium catalyst and indicator of anaerobiosis. Microaerophilic bacteria. The susceptibility of bacteria was determined by means of the agar dilution methods with Brucella agar supplemented with 5% sheep's blood. Samples solutions with concentrations from of 3.5- 0.2 mg/ml were added into agar. The agar plate without investigated samples was included as a bacterial growth control. The inoculum of 10^6 CFU/ml was applied to the agar plates with Steers replicator. The incubation was performed at 37° C. in anaerobic jars with Campy Pak (bio Merieux) for 48 hours. Streptococcus spp. The susceptibility of bacteria was determined by means of the agar dilution methods with Mueller-Hinton agar supplemented with 5% sheep's blood. Samples solutions with concentrations from of 3.5- 0.2 mg/ml were added into agar. The agar plate without investigated samples was included as a bacterial growth control. The inoculum of 10^6 CFU/ml was applied to the agar plates with Steers replicator. Incubation was performed for 24 hrs at 37° C. (310° K) in anaerobic jars containing a mixture of 10% CO2 and 90% N2. Aerobes. The susceptibility to investigated samples was determined by means of the plate dilution technique in Mueller-Hinton agar. Samples solutions with concentrations from of 3.5- 0.2 mg/ml were added into agar. The agar plate without investigated samples was included as a bacterial growth control. The inoculum of 10^6 CFU/ml was applied to the agar plates with Steers replicator. Plates were incubated for 24 hrs in 37° C. under aerobic conditions. Yeast like fungi. The susceptibility of fungi to investigated samples was determined by means of the plate dilution technique in Sabouraud's agar. Samples solutions with concentrations from of 3.5- 0.2 mg/ml were added into agar. […]

As to “3-hydroxyphthalated e-polylysine [Product 27]”, the activity against aerobes result in series [1] is “not active”. Also, the “pH at which soluble in water” value in series [2] is recorded as “above 9”. Moreover, the activity against anaerobes entry in series [3] is recorded as “less effective”.
